From ChEMBL document CHEMBL1131803, “Novel benzopyrano[3,4-c]pyrrole derivatives as potent and selective dopamine D3 receptor antagonist” (Bioorg Med Chem Lett, 1999)

Legend:
D(3) dopamine receptor = D(3) dopamine receptor (Homo sapiens, UniProt P35462); assay: Ability to displace [125I]iodosulpiride from human dopamine D3 (hD3) receptor transfected into CHO cells.; type: cell-based
D(2) dopamine receptor = D(2) dopamine receptor (Homo sapiens, UniProt P14416); assay: Ability to displace [125I]iodosulpiride from human dopamine D2 (hD2) receptor transfected into CHO cells.; type: cell-based
Chain of D(2) dopamine receptor (P14416 whole entry): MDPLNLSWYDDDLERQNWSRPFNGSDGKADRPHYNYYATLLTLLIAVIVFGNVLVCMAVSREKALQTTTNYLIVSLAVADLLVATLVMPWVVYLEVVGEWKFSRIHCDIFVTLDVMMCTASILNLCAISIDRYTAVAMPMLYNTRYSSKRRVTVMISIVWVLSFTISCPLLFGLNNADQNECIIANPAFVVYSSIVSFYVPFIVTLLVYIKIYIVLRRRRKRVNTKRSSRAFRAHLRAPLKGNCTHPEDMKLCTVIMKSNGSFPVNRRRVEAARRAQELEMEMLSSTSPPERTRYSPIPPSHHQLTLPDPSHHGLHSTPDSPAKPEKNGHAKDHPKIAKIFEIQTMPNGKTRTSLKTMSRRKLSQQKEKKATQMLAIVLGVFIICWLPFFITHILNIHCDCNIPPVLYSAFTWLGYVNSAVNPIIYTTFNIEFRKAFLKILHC

Chain of D(3) dopamine receptor (P35462 whole entry): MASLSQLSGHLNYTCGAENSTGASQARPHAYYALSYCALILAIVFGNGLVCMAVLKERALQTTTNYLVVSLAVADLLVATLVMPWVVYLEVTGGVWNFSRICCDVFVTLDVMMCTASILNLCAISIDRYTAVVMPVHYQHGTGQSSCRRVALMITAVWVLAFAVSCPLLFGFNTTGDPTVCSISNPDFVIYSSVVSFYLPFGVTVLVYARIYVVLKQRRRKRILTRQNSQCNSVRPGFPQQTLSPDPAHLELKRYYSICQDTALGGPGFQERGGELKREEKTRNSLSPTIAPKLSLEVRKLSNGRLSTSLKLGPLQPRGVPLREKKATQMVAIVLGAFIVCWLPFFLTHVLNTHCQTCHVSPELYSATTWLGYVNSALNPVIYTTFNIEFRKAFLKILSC

| Compound | Ki (D(3) dopamine receptor) | Ki (D(2) dopamine receptor) |
| --- | --- | --- |
| N#Cc1ccc2c(c1)C1CN(Cc3ccc(F)cc3)CC1CO2 (stereo not drawn) | 7.94 nM | 79.4 nM |
| N#Cc1ccc2c(c1)[C@@H]1CN(CCCCNC(=O)c3ccc(-c4ccccc4)cc3)C[C@H]1CO2 | 0.631 nM | 50.1 nM |
| CCCN1CC2COc3ccc(C#N)cc3C2C1 (stereo not drawn) | 15.8 nM | 126 nM |
| CC(=O)Nc1ccc(CCN2CC3COc4ccc(C#N)cc4C3C2)cc1 (stereo not drawn) | 1 nM | 39.8 nM |
| N#Cc1ccc2c(c1)[C@H]1CN(CCCCNC(=O)c3ccc(-c4ccccc4)cc3)C[C@@H]1CO2 | 0.316 nM | 31.6 nM |
| N#Cc1ccc2c(c1)[C@H]1CN(CCCCNC(=O)c3ccc(-c4ccc(N)cc4)cc3)C[C@@H]1CO2 (single isomer, unassigned) | 0.2 nM | 20 nM |
| CC(=O)c1ccc(C(=O)Nc2ccc(CCN3CC4COc5ccc(C#N)cc5C4C3)cc2)cc1 (stereo not drawn) | 0.794 nM | 20 nM |
| CC(=O)Nc1ccc(CCN2C[C@@H]3COc4ccc(C#N)cc4[C@H]3C2)cc1 | 1 nM | 31.6 nM |
| CC(=O)Nc1ccc(CCN2C[C@H]3COc4ccc(C#N)cc4[C@@H]3C2)cc1 | 3.16 nM | 39.8 nM |
| CC(=O)Nc1ccc(CN2CC3COc4ccc(C#N)cc4C3C2)cc1 (stereo not drawn) | 12.6 nM | 25.1 nM |
| CS(=O)(=O)Nc1ccc(CCN2CC3COc4ccc(C#N)cc4C3C2)cc1 (stereo not drawn) | 1.58 nM | 25.1 nM |
| CC(=O)Nc1ccc(CN2C[C@H]3COc4ccc(C#N)cc4[C@@H]3C2)cc1 | 20 nM | 31.6 nM |
| CC(=O)Nc1ccc(CN2C[C@@H]3COc4ccc(C#N)cc4[C@H]3C2)cc1 | 10 nM | 12.6 nM |
| N#Cc1ccc2c(c1)C1CN(CCCCNC(=O)c3ccc(-c4ccccc4)cc3)CC1CO2 (stereo not drawn) | 0.794 nM | 79.4 nM |

Next, values leading:

| Ki (D(3) dopamine receptor) | Ki (D(2) dopamine receptor) | Compound |
| --- | --- | --- |
| 15.8 nM | 39.8 nM | N#Cc1ccc2c(c1)[C@@H]1CN(Cc3ccc(F)cc3)C[C@H]1CO2 |
| 25.1 nM | 501 nM | N#Cc1ccc2c(c1)OCC1CN(Cc3ccccc3)CC21 (trans isomer) |
| 100 nM | 316 nM | N#Cc1ccc2c(c1)C1CN(Cc3ccccc3)CC1CO2 (cis isomer) |
| 7.94 nM | 25.1 nM | Fc1ccc2c(c1)C1CN(Cc3ccccc3)CC1CO2 (trans isomer) |
| 2.51 nM | 20 nM | N#Cc1ccc2c(c1)[C@H]1CN(Cc3ccccc3)C[C@@H]1CO2 |
| 3.98 nM | 25.1 nM | N#Cc1ccc2c(c1)C1CN(Cc3ccccc3)CC1CO2 (trans isomer) |
| 79.4 nM | 251 nM | COc1ccc2c(c1)OCC1CN(Cc3ccccc3)CC21 (stereo not drawn) |
| 126 nM | 316 nM | c1ccc(CN2CC3COc4ccccc4C3C2)cc1 (trans isomer) |
| 100 nM | 501 nM | Brc1ccc2c(c1)C1CN(Cc3ccccc3)CC1CO2 (stereo in doubt; cis) |
| 6.31 nM | 31.6 nM | N#Cc1ccc2c(c1)[C@@H]1CN(Cc3ccccc3)C[C@H]1CO2 |
| 15.8 nM | 31.6 nM | Clc1ccc2c(c1)C1CN(Cc3ccccc3)CC1CO2 (trans isomer) |
| 6.31 nM | 25.1 nM | N#Cc1ccc2c(c1)[C@H]1CN(Cc3ccc(F)cc3)C[C@@H]1CO2 |
| 6.31 nM | 10 nM | N#Cc1ccc2c(c1)C1CN(Cc3ccccc3)CC1CC2 (trans isomer) |
| 15.8 nM | 50.1 nM | Brc1ccc2c(c1)C1CN(Cc3ccccc3)CC1CO2 (stereo in doubt; trans) |
| 79.4 nM | 200 nM | COc1ccc2c(c1)C1CN(Cc3ccccc3)CC1CO2 (stereo not drawn) |
